Measurements from patent EP0808303B1, “5-(4-SUBST.-PIPERIDINYL-1)-3-ARYL-PENTANOIC ACID DERIVATIVES AS TACHYKININ RECEPTOR ANTAGONIST” (AstraZeneca AB, priority 1995, dated 1996).

Legend:
[1] = target: T1, human NK1 receptor (Homo sapiens, UniProt P25103); experiment: SP Receptor Binding Assay (Test A); settings: binding of SP at human NK1 receptor expressed in MEL cells
T1 construct: expressed in transfected cells; host or cells: Mouse Erythroleukemia (MEL) cells
Description: SP Receptor Binding Assay (Test A)
The human NK1 receptor was isolated and characterized as described in: B. Hopkins, et al. "Isolation and characterization of the human lung NK1 receptor cDNA" Biochem. Biophys. Res. Comm., 1991, 180, 1110-1117; and the NK1 receptor was expressed in Mouse Erythroleukemia (MEL) cells using a procedure similar to that described in Test B below.

[2] = target: NK1 receptor (Oryctolagus cuniculus, UniProt G1SEI7); experiment: Rabbit Pulmonary Artery: NK1 in vitro functional assay (Test C); assay type: cell-based; settings: -log molar KB against agonist ASMSP
Chain of NK1 receptor (G1SEI7 1-407): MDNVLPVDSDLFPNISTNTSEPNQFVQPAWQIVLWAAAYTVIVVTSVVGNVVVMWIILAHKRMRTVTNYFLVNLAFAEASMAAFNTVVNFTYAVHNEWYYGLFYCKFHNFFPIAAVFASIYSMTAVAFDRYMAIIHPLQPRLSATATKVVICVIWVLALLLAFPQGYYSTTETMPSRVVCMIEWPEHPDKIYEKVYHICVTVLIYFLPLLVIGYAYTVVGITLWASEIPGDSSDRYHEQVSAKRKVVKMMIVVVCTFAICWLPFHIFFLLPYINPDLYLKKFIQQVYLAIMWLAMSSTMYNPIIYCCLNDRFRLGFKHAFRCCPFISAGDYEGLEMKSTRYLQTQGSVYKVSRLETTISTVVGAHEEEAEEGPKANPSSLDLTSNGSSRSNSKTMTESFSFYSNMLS
Experimental: Rabbit Pulmonary Artery: NK1 in vitro functional assay (Test C)
Male New Zealand white rabbits are killed by lethal injection (Nembutal, 60 mg/kg into a cannulated ear vein). Heparin, 0.0025 ml/kg of a 1000 U/ml solution, is injected into the ear vein prior to nembutal in order to decrease blood coagulation. The left and right branches of the pulmonary artery are isolated from the rest of the lung tissue and cut in half to provide four ring segments from each animal. […] Changes in tension are measured on a Grass polygraph via Grass FT-03 force transducers. […]
Potencies of the compounds are determined by calculating the apparent dissociation constants (KB) for each concentration tested using the standard equation: KB = [antagonist]/(dose ratio - 1) [formula] where dose ratio = antilog[(agonist-log molar EC50 without compound) - (agonist-log molar EC50 with compound)]. The KB values are converted to the negative logarithms and expressed as -log molar KB (i.e. pKB). […] The EC50 values are converted to negative logarithms and expressed as -log molar EC50. Maximum relaxation responses to ASMSP are determined by expressing the maximum response to the agonist as a percentage of the relaxation caused by papaverine.

[3] = target: T2, NK2 (Cavia porcellus, UniProt Q64077); experiment: Guinea Pig Trachea Assay: NK2 in vitro functional assay (Test D); assay type: cell-based; settings: -log molar KB against agonist BANK
T2 construct: The trachea are removed, trimmed of excess tissue (including removal of epithelium) and cut in spiral fashion; from tissue; host or cells: guinea pig trachea strips
T2 sequence (Q64077 1-402): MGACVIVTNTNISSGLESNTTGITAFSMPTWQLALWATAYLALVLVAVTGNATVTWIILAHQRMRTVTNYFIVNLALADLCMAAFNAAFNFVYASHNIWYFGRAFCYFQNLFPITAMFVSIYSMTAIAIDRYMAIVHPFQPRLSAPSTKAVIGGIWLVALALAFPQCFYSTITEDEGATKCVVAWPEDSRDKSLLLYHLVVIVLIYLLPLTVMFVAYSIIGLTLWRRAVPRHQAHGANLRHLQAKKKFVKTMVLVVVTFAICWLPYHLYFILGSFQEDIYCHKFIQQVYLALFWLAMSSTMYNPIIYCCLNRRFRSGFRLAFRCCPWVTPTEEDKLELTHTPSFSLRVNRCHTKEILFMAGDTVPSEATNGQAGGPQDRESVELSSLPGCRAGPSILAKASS
Experimental: Guinea Pig Trachea Assay: NK2 in vitro functional assay (Test D)
Male guinea pigs are killed by a sharp blow to the back of the head followed by exsanguination. The trachea are removed, trimmed of excess tissue (including removal of epithelium) and cut in spiral fashion. Each longitudinally cut tracheal segment is suspended as a strip in a water-jacketed (37.5°C) tissue bath containing a physiological salt solution of the following composition (mM): NaCl, 119; KCl 4.6; CaCl2, 1.8; MgCl2, 0.5; NaH2PO4, 1; NaHCO3, 25; glucose, 11; and indomethacin, 0.005 (to inhibit cyclooxygenase); gassed continuously with 95% O2-%5 CO2. […] Contractile responses are measured on a Grass polygraph via Grass FT-03 force transducers. […]
Potencies of the compounds are evaluated by calculating apparent dissociation constants (KB) for each concentration tested using the standard equation: KB = [antagonist]/(dose ratio-1) [formula] where dose ratio = antilog[(agonist -log molar EC50 without compound) - (agonist-log molar EC50 with compound)]. The KB values are converted to the negative logarithms and expressed as -log molar KB (i.e. pKB). […] The EC50 values are converted to the negative logarithms and expressed as -log molar EC50. Maximum contractile responses to BANK are determined by expressing the maximum response to BANK as a percentage of the initial contraction caused by capasacin.

[4] = target: T3, human NK2 receptor (Homo sapiens, UniProt P21452)
T3 sequence (P21452 1-398): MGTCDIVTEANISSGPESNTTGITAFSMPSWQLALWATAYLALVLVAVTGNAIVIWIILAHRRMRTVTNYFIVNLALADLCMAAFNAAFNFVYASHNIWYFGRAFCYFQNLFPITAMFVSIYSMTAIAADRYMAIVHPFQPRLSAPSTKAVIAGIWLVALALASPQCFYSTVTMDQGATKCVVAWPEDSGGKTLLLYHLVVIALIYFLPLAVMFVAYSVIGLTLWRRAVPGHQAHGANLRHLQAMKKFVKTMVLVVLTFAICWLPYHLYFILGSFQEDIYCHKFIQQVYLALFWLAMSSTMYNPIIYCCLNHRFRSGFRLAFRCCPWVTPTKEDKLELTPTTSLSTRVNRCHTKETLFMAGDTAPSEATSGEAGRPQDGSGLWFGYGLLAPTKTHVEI

T1 sequence (P25103 whole entry): as the sequence (G1SEI7 1-407) above, with F12S, D189N, A369P, E371D, N376T, G386C, N391D, Y402S, M405V counted along it

`O=C(CC(CCN1CCC(O)(c2ccccc2)CC1)c1ccc(Cl)c(Cl)c1)NCc1ccccc1` (stereo not shown) [Example 1, N-Benzyl-5-(4-hydroxy-4-phenylpiperidino)-3-(3,4-dichlorophenyl)pentanamide] was tested, and the Ki [1] was 30 nM, the pKB [2] was 5.41 and the Kb [3] was 794 nM. For the same compound, the Ki [4] was 15 nM.
